# Experimental data taken from patent US12318400B2, “Brown and beige adipocyte activating agent containing D-allulose as active ingredient” (NATIONAL UNIVERSITY CORPORATION KAGAWA UNIVERSITY, priority 2018, dated 2025).
# “Also recorded” adds a separate entry of the source.
# Tests used:
# UCP-1, PPAR-α, PGC-1α = experiment: Example 1: expression levels of UCP-1, PPAR-α and PGC-1α as activation of brown adipocytes; type: in vivo, mice; details: HFD+2% D-allulose vs HFD
# Description: (§1) In Examples of the present invention, activation of brown adipocytes was evaluated by the expression level of UCP-1, PPAR-α, or PGC-1α. The influence of administration of D-allulose, one of rare sugars, on brown adipocytes (BAT: abbreviation of brown adipose tissue) was studied. The experiment was performed using 6-week mice and the mice were divided into 3 groups, each group having 5 mice. The treatment was made as follows for 8 weeks. • (1) A group of normal diet and drinking of water (Normal food) • (2) A group of high fat diet and drinking of water (HFD) • (3) A group of high fat diet and drinking of water containing 2% D-allulose (D-allulose) (HFD+2% D-allulose) 2. Evaluation item: • (1) Transition of Body Weight • Transition of Blood Glucose • (2) Size and weight of brown adipocytes under the scapula • (3) Pathological evaluation of the morphological change in brown adipocytes • (4) Evaluation of UCP-1, PPAR-α, and PGC-1α expression levels as activation of brown adipocytes 3.
# brown adipocytes (BAT) = experiment: Example 1: high fat diet mice given 2% D-allulose drinking water, body weight, blood glucose and brown adipocytes; type: in vivo
# Description: as §1, with “The” for “In Examples of the present invention, activation of brown adipocytes was evaluated by the expression level of UCP-1, PPAR-α, or PGC-1α. The”
# [1] = test system: cell line derived from a single clone from BAT of the adult supraclavicular fossa; experiment: Differentiation induction into beige adipocytes in cells (BAT-protocol, WAT-protocol) with addition of D-allulose; type: cell-based
# Text: FIG. 21 is a drawing for describing, with regard to an experiment using cells (a single-clone-derived cell strain is established from BAT of adult supraclavicular fossa portion and is used as a research model of differentiation induction into beige adipocytes), two protocols, that is, BAT-protocol and WAT-protocol, for inducing beige adipocytes. FIG. 22 is a drawing for describing, in an experiment using cells, protocols including two protocols, that is, BAT-protocol and WAT-protocol, for inducing beige adipocytes and further including addition of D-allulose. […] They are presumed to participate in the activation of brown adipocytes. • 10) FIG. 20 is a drawing for describing two protocols for inducing beige adipocytes, that is, BAT-protocol and WAT-protocol used in an experiment using cells (a cell line derived from a single clone from BAT of the adult supraclavicular fossa is established and used as a research model of the differentiation induction into beige adipocytes). FIG. 21 is a drawing for describing a protocol including two protocols for inducing beige adipocytes, that is, BAT-protocol and WAT-protocol and further including addition of D-allulose in an experiment using cells.
# type 2 diabetic patients = experiment: Example 2: human clinical test of D-allulose (D-psicose) in type 2 diabetic patients; type: in vivo
# Text: Type 2 diabetic patients unable to get sufficient effects by any of the following treatments (HbA1c: 6.5% or more) […] • 1) Only diet therapy and exercise therapy • 2) Drug therapy in addition to diet therapy and exercise therapy <Exclusion Standards> • 1) Patients having a contraindication to D-allulose (D-psicose) administration • 2) Patients who are participating in another clinical trial • 3) Pregnant women, parturients, lactating women, or women who may be pregnant • 4) Patients having 8% or more HbA1c and poor in blood glucose control • 5) Patients recognized to have severe renal dysfunction (serum creatinine level: 1.5 mg/dl or more) • 6) Patients having another severe complication <Experimenting Method> D-allulose (D-psicose) powders: provided as sticks each containing 5 g/pack (product of Rare Sweet) It was orally administered with 5 g per dose three times a day. Twelve type 2 diabetic patients (4 male cases, 8 female cases) who could be observed for 3 months were compared for general findings and blood test before administration and 12 weeks after administration (Wilcoxon signed rank test).
# beige adipocytes = experiment: Example 3: marker expression in beige adipocytes of HFD-loaded mice after D-allulose; type: in vivo
# Description: (§2) (Purpose) The influence of D-allulose administration to mice on their brown adipose tissue is confirmed. In addition, differentiation of beige adipocytes is studied with a change in UCP-1 expression or the like as a marker. Mice are divided into two groups, each group having five mice. Eight-week-old mice of each group are loaded with a high fat diet (HFD). From four weeks after loading with HFD, one of the groups is loaded with HFD continuously. To the other group, D-allulose (0.2 mg/body weight g/day) together with HFD is administered to the stomach by a sonde. Until week 10, the body weight, food intake, water intake, and blood glucose level are monitored. The administration of D-allulose has a possibility of contributing a weight loss by inducing beige adipocytes and activating brown adipocytes. • 9) With regard to the details of the induction of beige adipocytes and the activation of brown adipocytes caused by D-allulose administration, expression of UCP-1 and Prdm16 which are genes involved in thermogenesis, Pgcl-α and Tfam which are genes reflecting the mitochondrial function of organelle involved in thermogenesis, and PPARγ which is a gene related to the differentiation of fat are investigated and the results are shown in FIG. 19.
# [2] = test system: brown adipose tissue (BAT); type: in vivo, mice
# Description: FIG. 10 is a drawing for describing the procedure (protocol) of the experiment of Example 3. Mice are divided into two groups, with one group having five mice. Eight-week-old mice of each group are loaded with a high fat diet (HFD). From four weeks after loading with HFD, one of the groups is loaded with HFD continuously. To the other group, D-allulose (0.2 mg/body weight g/day), in addition to HFD, is administered to the stomach by a sonde. Until week 10, the body weight, food intake, water intake, and blood glucose level are monitored. Glucose was intraperitoneally administered and the blood glucose level after 0, 15, 30, 60, 90, and 120 minutes were measured.
# brown adipocytes = experiment: Example 3: marker expression in brown adipocytes of HFD-loaded mice after D-allulose; type: in vivo
# Description: as §2
# [3] = 6-week mice, HFD+2% D-allulose water, 8 weeks, vs HFD group
# [4] = presence or absence of D-allulose
# [5] = after administration vs before administration
# [6] = before vs 12 weeks after administration, 5 g three times a day
# [7] = HFD mice, D-allulose administered group
# [8] = classical brown adipose tissue, HFD-loaded mice
smiles,measurement,setting,value
O=C(CO)[C@H](O)[C@H](O)[C@H](O)CO [D-allulose],PGC-1α expression level,"UCP-1, PPAR-α, PGC-1α",induced more strongly
same,PPAR-α expression level,"UCP-1, PPAR-α, PGC-1α",induced more strongly
same,UCP-1 expression level,"UCP-1, PPAR-α, PGC-1α",induced UCP-1 further
same,Transition of blood glucose,brown adipocytes (BAT); [3],a decrease in blood glucose was recognized
same,Transition of body weight,brown adipocytes (BAT); [3],a decrease in body weight was observed
same,Size and weight of brown adipocytes under the scapula,"brown adipocytes (BAT); HFD+2% D-allulose, 8 weeks, vs HFD group",an increase in brown adipocytes was recognized
same,Pathological evaluation of the morphological change in brown adipocytes,"brown adipocytes (BAT); HFD+2% D-allulose, tissue staining, vs HFD group (steatosis)",improved to have almost a normal state; also recorded: almost morphologically similar to that of the normal diet intake group
same,Expression of all the markers,"[1]; D-allulose administered group, markers UCP-1, Prdm16, Pgc-1α, tfam, cox8b, PPARγ",significantly increased
same,PPARγ expression,[1]; WAT-protocol,enhances the expression
same,Pgc-1α expression,[1]; WAT-protocol,enhances the expression
same,Prdm16 expression,[1]; WAT-protocol,enhances the expression
same,UCP-1 protein expression,[1]; WAT-protocol,slightly enhances
same,oil-red-O (fat staining),[1]; addition of D-allulose to the differentiation inducing protocol,promotes
same,PPARγ expression,[1]; both differentiation protocols,enhances expression of PPARγ
same,PPARγ expression,[1]; [4],increased
same,UCP-1 expression,[1]; [4],increased
same,TNF-α level,type 2 diabetic patients; 2 months after administration,significant decrease
same,Body weight decrease on average,"type 2 diabetic patients; 5 g three times a day orally, 3 months after administration, 12 patients",1 kg
same,Body weight,"type 2 diabetic patients; 5 g three times a day orally, after 3 months",significant decrease in body weight
same,MCP-1 level,type 2 diabetic patients; [5],significantly decreased
same,TNF-α level,type 2 diabetic patients; [5],significantly decreased
same,GA,type 2 diabetic patients; [6],No significant difference
same,HbA1c,type 2 diabetic patients; [6],No significant difference
same,adiponectin,type 2 diabetic patients; [6],No significant difference
same,leptin,type 2 diabetic patients; [6],No significant difference
same,UCP-1 mRNA expression,beige adipocytes; HFD-loaded mice,significantly increased
same,UCP-1 protein expression,beige adipocytes; HFD-loaded mice,significantly increased
same,PPARγ gene expression,beige adipocytes; gene panel,increased
same,Pgcl-α gene expression,beige adipocytes; gene panel,increased
same,Prdm16 gene expression,beige adipocytes; gene panel,increased
same,Tfam gene expression,beige adipocytes; gene panel,increased
same,UCP-1 gene expression,beige adipocytes; gene panel,increased
same,Increasing degree of body weight,"[2]; HFD mice, D-allulose 0.2 mg/body weight g/day by sonde, from week 2 after administration is started",lowers significantly
same,Fasting blood glucose level,"[2]; HFD mice, D-allulose 0.2 mg/body weight g/day, from week 3 after administration is started",a reduction in fasting blood glucose level is observed
same,Area of brown adipocytes (BAT),[2]; [7],increase
same,Weight of brown adipocytes (BAT),[2]; [7],increase
same,Blood glucose level in the glucose loading test,"[2]; after 10 weeks, glucose intraperitoneally, after 90 and 120 minutes, vs control group",significantly decreases
same,Food intake,"[2]; mouse, in vivo",no significant change
same,Water intake,"[2]; mouse, in vivo",no significant change
same,Prdm16 gene expression,"brown adipocytes; brown adipocytes, gene panel",increase
same,Tfam gene expression,"brown adipocytes; brown adipocytes, gene panel",increase
same,UCP-1 gene expression,"brown adipocytes; brown adipocytes, gene panel",increase
same,UCP-1 mRNA expression,brown adipocytes; [8],increased
same,UCP-1 protein expression,brown adipocytes; [8],increased
